This data set is described as follows: Particle size (d50) by laser light diffraction, Malvern Mastersizer 2000. The data set is classed as physicochemical. To be noted: unmilled active ingredient. The source says:
During step (a) of the method of the invention, the suspension may be recycled if necessary and the process of particle size reduction continued until the desired nanoparticle size of the active ingredient is obtained. The size of the nanoparticles within the nanosuspension is typically measured using well known techniques, such as laser light diffraction methodology using, e.g., a Malvern Mastersizer 2000 particle size analyzer (Malvern Instruments, Westborough Mass.). Particle size measurements are typically described using parameters such as d50, a parameter that represents the size above and below which one finds 50% of the volume of all particles, also known as the volume weighted median. Accordingly, d50 represents a median particle size value. According to the invention, the solution is milled until a d50 ranging preferably from about 1 nm to about 900 nm, more preferably from about 10 nm to about 800 nm, and most preferably from about 50 nm to about 700 nm is achieved.
An oral solid dosage form comprising the active ingredient naproxen and excipients fish gelatin as nanostabilizer (SMW fish gelatin grade from Norland Products Inc.—Example 1A; and DFG grade from Norland Products Inc.—Example 1B) and mannitol as bulking agent was prepared. An aqueous solution of 5% fish gelatin and 3% mannitol was prepared; then naproxen was added to this solution to form a suspension slurry. The suspension slurry was charged into a 600 cc chamber-size Dyno® Mill containing zirconium milling media. Naproxen concentration in the milling slurry was 15% by weight. Milling was performed on recirculating suspension for 1.5 hours using the default milling conditions for this equipment. The resultant bulk nanosuspension was discharged from the mill, and 250 mg unit doses were accurately dispensed into 0.25 mL capacity blister pockets using an IVEK pump controlled using a Digispense unit. Blister pockets were frozen in an Air Products CM2000 freezer using liquid nitrogen as coolant and a 3 minute freezing time, then held in a freezer until transfer to pre-cooled freeze-drier shelves. […]
`COc1ccc2c(c1)c(CC(=O)O)c(C)n2C(=O)c1ccc(Cl)cc1` [indomethacin] yielded a d50 of 37 μm.

As for `COc1ccc2cc([C@H](C)C(=O)O)ccc2c1` [naproxen], the d50 is on record as 22 μm.

`CCOc1ccc(NC(C)=O)cc1` [phenacetin] came in with a d50 of 83 μm.

The record behind these values is US9775819B2, “Oral solid dosage form containing nanoparticles and process of formulating the same using fish gelatin” (R.P. SCHERER TECHNOLOGIES, LLC, priority 2009, dated 2017).
